The values that follow come from patent US8729030B2 (Affymax, Inc., priority 2003, dated 2014).

Bridges are numbered along the chain shown (N, C = ends). Where no end group is shown, it is not given here. [ ]: non-standard residue; d: D form. 1Nal = N[C@@H](Cc1cccc2ccccc12)C(=O)O; Sar = CNCC(=O)O

The subject of the assay is human, bone marrow derived CD34+ cells. Put plainly: C/BFU-e assay (erythroid colony formation). The settings on record: Table 6; colonies 90% of maximum relative to EPO control, 14 days. The assay is classed as cell-based. The text has this: EPO-R signaling stimulates the differentiation of bone marrow stem cells into proliferating red blood cell presursors. This assay measures the ability of test peptides to stimulate the proliferation and differentiation of red blood cell precursors from primary human bone marrow pluripotent stem cells.
For this assay, serial dilutions of test peptide are made in IMDM medium (Gibco) supplemented with 10% FBS (Hyclone). […] The methylcellulose and peptide mixture is then vortexed thoroughly. Aliquots (100,000 cells/mL) of human, bone marrow derived CD34+ cells (Poietics/Cambrex) are thawed. The thawed cells are gently added to 0.1 mL of 1 mg/ml DNAse (Stem Cells) in a 50 mL tube. Next, 40-50 mL IMDM medium is added gently to cells: the medium is added drop by drop along the side of the 50 mL tube for the first 10 mL, and then the remaining volume of medium is slowly dispensed along the side of the tube. The cells are then spun at 900 rpm for 20 min, and the media removed carefully by gentle aspiration. The cells are resuspended in 1 ml of IMDM medium and the cell density per mL is counted on hemacytometer slide (10 μL aliquot of cell suspension on slide, and cell density is the average count×10,000 cells/ml). The cells are then diluted in IMDM medium to a cell density of 15,000 cells/mL. A 100 μL of diluted cells is then added to each 1.5 mL methyl cellulose plus peptide sample (final cell concentration in assay media is 1000 cells/mL), and the mixture is vortexed. Allow the bubbles in the mixture to disappear, and then aspirate 1 mL using blunt-end needle. Add 0.25 mL aspirated mixture from each sample into each of 4 wells of a 24-well plate (Falcon brand). Incubate the plated mixtures at 37° C. under 5% CO2 in a humid incubator for 14 days. Score for the presence of erythroid colonies using a phase microscope (5×-10× objective, final magnification of 100×).
EPO-R signaling stimulates the differentiation of bone marrow stem cells into proliferating red blood cell precursors. […]

As to “peptide dimer of monomers (AcG)GLYACHMGPIT(1-nal)VCQPLR(MeG)K (SEQ ID NO: 2) (Ac-GGLYACHMGPIT[1Nal]VCQPLR[Sar]K; disulfide 6-15 (inferred); not fully specified (residue 1); printed as (AcG)GLYACHMGPIT(1-nal)VCQPLR(MeG)K; also: homodimer, dimer linkage not given here) [Peptide I]”, the 90% effect level (EC90) was put at 3 nM.
